# Reference: US11680068B2, “Compounds useful as RET inhibitors” (Cancer Research Technology Limited, priority 2017, dated 2023)
# Target: RET (Homo sapiens (Human), UniProt P07949)
# Test: RET enzyme assay (CisBio HTRF kinEASE)
# Format: biochemical
# Conditions: tested compounds listed as lacking activity
# Sequence of RET (P07949 658-1114): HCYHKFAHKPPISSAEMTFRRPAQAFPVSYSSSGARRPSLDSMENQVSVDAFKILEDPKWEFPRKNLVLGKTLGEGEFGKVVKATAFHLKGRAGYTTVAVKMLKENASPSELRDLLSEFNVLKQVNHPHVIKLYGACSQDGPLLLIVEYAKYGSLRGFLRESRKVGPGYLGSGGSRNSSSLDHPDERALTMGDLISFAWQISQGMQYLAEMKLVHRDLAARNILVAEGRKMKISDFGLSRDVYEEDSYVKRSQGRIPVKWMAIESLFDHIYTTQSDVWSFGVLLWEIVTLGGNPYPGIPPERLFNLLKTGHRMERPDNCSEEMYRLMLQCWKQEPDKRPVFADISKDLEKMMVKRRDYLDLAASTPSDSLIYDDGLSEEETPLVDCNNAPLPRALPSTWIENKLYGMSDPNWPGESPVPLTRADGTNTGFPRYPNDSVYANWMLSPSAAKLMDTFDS
row,SMILES,desired activity in the assays described in Example 51
1,"CC(C)(C)n1nc(-c2ccc3cc(C(=O)O)[nH]c3c2)c2c(N)ncnc21 [6-(4-amino-1-tert-butyl-pyrazolo[3,4-d]pyrimidin-3-yl)-1H-indole-2-carboxylic acid]",did not exhibit the desired activity
2,"CC(C)(C)n1nc(-c2ccc3cc(C(=O)Nc4nnc(C(F)(F)F)s4)[nH]c3c2)c2c(N)ncnc21 [6-(4-amino-1-tert-butyl-pyrazolo[3,4-d]pyrimidin-3-yl)-N-[5-(trifluoromethyl)-1,3,4-thiadiazol-2-yl]-1H-indole-2-carboxamide]",did not exhibit the desired activity
3,"CNC(=O)c1cc2ccc(-c3n[nH]c4ncnc(N)c34)cc2[nH]1 [6-(4-amino-1H-pyrazolo[3,4-d]pyrimidin-3-yl)-N-methyl-1H-indole-2-carboxamide]",did not exhibit the desired activity
4,"CNC(=O)c1cc2ccc(-c3nn(CCO)c4ncnc(N)c34)cc2[nH]1 [6-[4-amino-1-(2-hydroxyethyl)pyrazolo[3,4-d]pyrimidin-3-yl]-N-methyl-1H-indole-2-carboxamide]",did not exhibit the desired activity
5,"CNC(=O)c1cc2ccc(-c3nn(CC(=O)N(C)C)c4ncnc(N)c34)cc2[nH]1 [6-[4-amino-1-[2-(dimethylamino)-2-oxo-ethyl]pyrazolo[3,4-d]pyrimidin-3-yl]-N-methyl-1H-indole-2-carboxamide]",did not exhibit the desired activity
6,"CNC(=O)c1cc2ccc(-c3nn(CCC(=O)N(C)C)c4ncnc(N)c34)cc2[nH]1 [6-[4-amino-1-[3-(dimethylamino)-3-oxo-propyl]pyrazolo[3,4-d]pyrimidin-3-yl]-N-methyl-1H-indole-2-carboxamide]",did not exhibit the desired activity
7,"CCNC(=O)c1cc2ccc(-c3nn([C@H]4CC[C@@H](O)C4)c4ncnc(NC)c34)cc2[nH]1 [N-ethyl-6-[1-[(1S,3R)-3-hydroxycyclopentyl]-4-(methylamino)pyrazolo[3,4-d]pyrimidin-3-yl]-1H-indole-2-carboxamide]",did not exhibit the desired activity
